The values that follow come from ChEMBL document CHEMBL4732086, “Targeting nuclear protein TDP-43 by cell division cycle kinase 7 inhibitors: A new therapeutic approach for amyotrophic lateral sclerosis” (Eur J Med Chem, 2021).

pIC50: −log10 of the molar value. Activity calls are given as the source filed them. No cut-off for these calls is given here.

Experiment [1] addresses Homeodomain-interacting protein kinase 1 (Homo sapiens) (UniProt Q86Z02). The experiment is described as follows: Inhibition of recombinant human full length GST-tagged HIPK1 expressed in baculovirus expression system using serine/threonine-09 peptide as substrate at 10 uM incubated for 60 mins in presence of ATP by Z'-LYTE assay.
Experiment [2] concerns the target Serine/threonine-protein kinase MARK1 (Homo sapiens) (UniProt Q9P0L2). The experiment is described as follows: Inhibition of recombinant human full length GST-tagged MARK1 expressed in baculovirus expression system using serine/threonine-21 peptide as substrate at 10 uM by Z'-LYTE assay. As to conditions: time 60.0 min.
Experiment [3] has as its target Calcium/calmodulin-dependent protein kinase type II subunit alpha (Homo sapiens) (UniProt Q9UQM7). The experiment is described as follows: Inhibition of recombinant full length human His-tagged CAMK2alpha expressed in baculovirus expression system using serine/threonine-4 peptide as substrate at 10 uM incubated for 60 mins in presence of ATP by Z'-LYTE assay.
In experiment [4] the target is Serine/threonine-protein kinase pim-2 (Homo sapiens) (UniProt Q9P1W9). The experiment is described as follows: Inhibition of recombinant human GST-tagged PIM2 expressed in baculovirus expression system using serine/threonine-07 peptide as substrate at 10 uM by Z'-LYTE assay. As to conditions: time 60.0 min.
Experiment [5] deals with Serine/threonine-protein kinase pim-1 (Homo sapiens) (UniProt P11309). The experiment is described as follows: Inhibition of recombinant human HIS-tagged PIM1 expressed in baculovirus expression system using serine/threonine-07 peptide as substrate at 10 uM by Z'-LYTE assay. As to conditions: time 60.0 min.
In experiment [6] the target is CDK2/Cyclin A2 (Homo sapiens) (UniProt P24941+P20248). The experiment is described as follows: Inhibition of recombinant full length human His-tagged CDK2/Cyclin A expressed in baculovirus expression system using serine/threonine-12 peptide as substrate at 10 uM incubated for 60 mins in presence of ATP by Z'-LYTE assay.
For experiment [7], the target named is CDC7/DBF4 (Cell division cycle 7-related protein kinase/Activator of S phase kinase) (Homo sapiens, UniProt O00311). The experiment is described as follows: Inhibition of recombinant human CDC7/Dbf4 expressed in baculovirus infected Sf9 insect cells assessed as inhibition of fluorescein labelled substrate phosphorylation in presence of ATP measured after 60 mins by TR-FRET assay. (In general: TR-FRET usually uses a lanthanide donor and a delayed reading to cut background.)

The target of experiment [8] is T1, Mitogen-activated protein kinase 12 (Homo sapiens) (UniProt P53778).
T1 sequence (whole entry): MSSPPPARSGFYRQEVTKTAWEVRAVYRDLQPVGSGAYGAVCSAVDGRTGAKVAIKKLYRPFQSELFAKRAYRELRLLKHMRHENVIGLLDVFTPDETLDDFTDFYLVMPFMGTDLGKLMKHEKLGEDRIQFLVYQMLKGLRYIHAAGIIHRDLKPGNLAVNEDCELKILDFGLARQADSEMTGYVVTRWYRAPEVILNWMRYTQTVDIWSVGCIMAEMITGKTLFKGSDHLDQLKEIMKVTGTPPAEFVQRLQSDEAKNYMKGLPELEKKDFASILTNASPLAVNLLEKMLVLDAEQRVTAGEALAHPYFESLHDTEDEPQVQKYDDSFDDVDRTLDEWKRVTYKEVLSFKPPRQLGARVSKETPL
The experiment is described as follows: Inhibition of recombinant human full length His-tagged MAPK12 expressed in baculovirus expression system using serine/threonine-03 peptide as substrate at 10 uM incubated for 60 mins in presence of ATP by Z'-LYTE assay.

For experiment [9], the target named is CDC7/DBF4 (Cell division cycle 7-related protein kinase/Activator of S phase kinase) (Homo sapiens) (UniProt Q9UBU7+O00311). The experiment is described as follows: Competitive inhibition of recombinant human full length N-terminal GST tagged CDC7/Dbf4 expressed in baculovirus infected Sf9 insect cells assessed as inhibition of substrate phosphorylation using PDKtide as substrate at 5 to 10 uM measured after 60 mins by ATP assay. As to conditions: dose 5-10 µM.

Experiment [10] deals with cAMP-dependent protein kinase catalytic subunit alpha (Homo sapiens) (UniProt P17612). The experiment is described as follows: Inhibition of recombinant human His-tagged PRKACA expressed in Escherichia coli expression system using serine/threonine-01 peptide as substrate at 10 uM by Z'-LYTE assay. As to conditions: time 60.0 min.
For experiment [11], the target named is T2, Cyclin-dependent kinase 5/CDK5 activator 1 (Homo sapiens) (UniProt Q00535+Q15078). Kind of experiment: Inhibition of recombinant full length human GST/His-tagged CDK5/p25 expressed in baculovirus expression system using serine/threonine-12 peptide as substrate at 10 uM incubated for 60 mins in presence of ATP by Z'-LYTE assay.
The target in experiment [12] is Serine/threonine-protein kinase pim-3 (Homo sapiens) (UniProt Q86V86). The experiment is described as follows: Inhibition of recombinant human GST-tagged PIM3 expressed in baculovirus expression system using serine/threonine-07 peptide as substrate at 10 uM by Z'-LYTE assay. As to conditions: time 60.0 min.
The target of experiment [13] is Serine/threonine-protein kinase MARK2 (Homo sapiens) (UniProt Q7KZI7). Kind of experiment: Inhibition of recombinant human full length GST-tagged MARK2 expressed in baculovirus expression system using serine/threonine-21 peptide as substrate at 10 uM by Z'-LYTE assay. Particulars: time 60.0 min.
The target of experiment [14] is T2, Cyclin-dependent kinase 5/CDK5 activator 1 (Homo sapiens). Kind of experiment: Inhibition of recombinant full length human GST/His-tagged CDK5/p35 using serine/threonine-12 peptide as substrate at 10 uM incubated for 60 mins in presence of ATP by Z'-LYTE assay. It is filed as protein-complex assay.
The test system of experiment [15] is SH-SY5Y. Kind of experiment: Neuroprotective activity in human SH-SY5Y cells assessed as decrease in ethacrynic acid-induced TDP-43 phosphorylation preincubated for 1 hr followed by incubation with ethacrynic acid for 24 hrs measured at 10 uM by Western blot assay. It is filed as functional, cell-based. Background: A western blot detects proteins with antibodies after separation by electrophoresis.

Experiment [16] addresses Mitogen-activated protein kinase 7 (Homo sapiens) (UniProt Q13164). Kind of experiment: Inhibition of recombinant human full length GST-tagged MAPK7 expressed in baculovirus expression system using serine/threonine-04 peptide as substrate at 10 uM by Z'-LYTE assay. As to conditions: time 60.0 min.
In experiment [17] the target is Casein kinase I isoform epsilon (Homo sapiens) (UniProt P49674). Kind of experiment: Inhibition of human CSNK1E expressed in baculovirus expression system using serine/threonine-11 peptide as substrate at 10 uM incubated for 60 mins in presence of ATP by Z'-LYTE assay.
Experiment [18] addresses T3, Aurora kinase A (Homo sapiens) (UniProt O14965).
T3 sequence (whole entry): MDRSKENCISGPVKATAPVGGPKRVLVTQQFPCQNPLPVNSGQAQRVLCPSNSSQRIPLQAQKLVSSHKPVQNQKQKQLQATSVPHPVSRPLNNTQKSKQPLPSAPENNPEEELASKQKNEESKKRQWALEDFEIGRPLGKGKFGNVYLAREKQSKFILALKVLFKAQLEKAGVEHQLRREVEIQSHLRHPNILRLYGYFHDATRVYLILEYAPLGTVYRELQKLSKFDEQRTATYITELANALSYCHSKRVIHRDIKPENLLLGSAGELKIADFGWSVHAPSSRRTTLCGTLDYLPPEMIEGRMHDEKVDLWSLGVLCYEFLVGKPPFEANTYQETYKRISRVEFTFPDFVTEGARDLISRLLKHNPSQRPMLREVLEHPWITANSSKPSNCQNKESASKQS
The experiment is described as follows: Inhibition of recombinant human full length AURKA expressed in baculovirus expression system using Ser/Thr-01 peptide as substrate at 10 uM after 1 hr in presence of ATP by Z'LYTE assay.

`Brc1ccccc1CSc1ncnc2[nH]cnc12`: the inhibition result in [1], in experiment [2], in [3], in [4], in experiment [5] and in [6] was “inactive” in each case. For the same compound, the inhibition entry in experiment [8], in [10], in experiment [11], in [12], in experiment [13] and in experiment [14] was “inactive” throughout. For the same compound, the inhibition entry in experiment [16], in [17] and in experiment [18] was “inactive” each time. Moreover, the negative logarithm of the IC50 (pIC50) in experiment [7] was 6.57. Also, the inhibition entry in [9] was “Active”. In addition, in experiment [15], the outcome was Active.

With `c1ccc(CSc2ncnc3[nH]cnc23)cc1`, the inhibition entry in [1], in experiment [2], in experiment [3], in experiment [4], in experiment [5] and in experiment [6] was “inactive” each time. Also, the inhibition result in experiment [8], in experiment [10], in experiment [11], in experiment [12], in experiment [13] and in [14] was “inactive” each time. Also, the inhibition result in [16], in experiment [17] and in experiment [18] was “inactive” each time. Besides, the pIC50 in [7] is 6.70. The inhibition entry in experiment [9] was “Active”. Besides, in [15], the outcome was Active.

For the compound `Clc1cccc(CSc2ncnc3[nH]cnc23)c1`, the inhibition result in [1], in experiment [2], in experiment [3], in experiment [4], in experiment [5] and in experiment [6] was “inactive” in each case. Moreover, the inhibition entry in experiment [8], in experiment [10], in [11], in experiment [12], in experiment [13] and in [14] was “inactive” in each case. Further, the inhibition result in experiment [16], in experiment [17] and in experiment [18] was “inactive” throughout. In addition, the negative-log IC50 (pIC50) in [7] was 6.85. In [9], the inhibition entry was “Active”. Besides, in experiment [15], the result was Active.

By pIC50 is commonly meant −log10 of the IC50, conventionally taken in molar units.
